Laboratory results: the supplement of paper PMC13207355

What was measured:
Settings in all cases: exposure time: 72 h
E28 [1] = patient-derived glioblastoma stem cells of classical subtype; assay: surviving fraction (nuclei count normalised to DMSO); higher = more cells surviving (less toxic)
E57 [2] = patient-derived glioblastoma stem cells of mesenchymal subtype; assay: as above
E31 [3] = patient-derived glioblastoma stem cells of proneural subtype; assay: as above
E34 [4] = patient-derived glioblastoma stem cells of proneural subtype; assay: as above
E13 [5] = patient-derived glioblastoma stem cells of classical subtype; assay: as above
E21 [6] = patient-derived glioblastoma stem cells of mesenchymal subtype; assay: as above
FT3469 [7] = normal neural stem cell line; assay: as above
E28 [8] = assay: phenotypic distance (Euclidean, principal components) from DMSO controls (arbitrary units); higher = stronger morphological change
E57 [9] = assay: as above
E31 [10] = assay: as above
E34 [11] = assay: as above
E13 [12] = assay: as above
E21 [13] = assay: as above
FT3469 [14] = assay: as above
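Throughout, for phenotypic distance (Euclidean, principal components) from DMSO controls: cell Painting imaging in 384-well plates, CellProfiler features reduced to at least 20 principal components, Euclidean distance versus same-plate DMSO vehicle wells (0.1% v/v), median over six images per well.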
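Throughout, for surviving fraction (nuclei count normalised to DMSO): nuclei counted by high-content imaging of Hoechst-stained cells in laminin-coated 384-well plates, relative to 0.1% DMSO vehicle wells, with staurosporine as cell-death control.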

What does the source list for `NC(=O)c1ccccc1` [Benzamide]?
surviving fraction (E28 [1]; 4.1 nM): 0.82; surviving fraction (E28 [1]; 12.3 nM): 1.08; surviving fraction (E28 [1]; 37 nM): 0.909; surviving fraction (E28 [1]; 111.1 nM): 1.31; surviving fraction (E28 [1]; 333.3 nM): 1.03; surviving fraction (E28 [1]; 1000 nM): 1.09; surviving fraction (E28 [1]; 3000 nM): 1.04; surviving fraction (E57 [2]; 4.1 nM): 0.938; surviving fraction (E57 [2]; 12.3 nM): 1.06; surviving fraction (E57 [2]; 37 nM): 1.02; surviving fraction (E57 [2]; 111.1 nM): 0.94; surviving fraction (E57 [2]; 333.3 nM): 0.938; surviving fraction (E57 [2]; 1000 nM): 0.896; surviving fraction (E57 [2]; 3000 nM): 0.99; surviving fraction (E31 [3]; 4.1 nM): 0.994; surviving fraction (E31 [3]; 12.3 nM): 0.978; surviving fraction (E31 [3]; 37 nM): 0.972; surviving fraction (E31 [3]; 111.1 nM): 1.02; surviving fraction (E31 [3]; 333.3 nM): 0.968; surviving fraction (E31 [3]; 1000 nM): 1.07; surviving fraction (E31 [3]; 3000 nM): 0.947; surviving fraction (E34 [4]; 4.1 nM): 1.03; surviving fraction (E34 [4]; 12.3 nM): 0.958; surviving fraction (E34 [4]; 37 nM): 0.993; surviving fraction (E34 [4]; 111.1 nM): 1.04; surviving fraction (E34 [4]; 333.3 nM): 0.904; surviving fraction (E34 [4]; 1000 nM): 1.29; surviving fraction (E34 [4]; 3000 nM): 1.03; surviving fraction (E13 [5]; 4.1 nM): 0.896; surviving fraction (E13 [5]; 12.3 nM): 0.891; surviving fraction (E13 [5]; 37 nM): 0.961; surviving fraction (E13 [5]; 111.1 nM): 1.04; surviving fraction (E13 [5]; 333.3 nM): 1.03; surviving fraction (E13 [5]; 1000 nM): 0.945; surviving fraction (E13 [5]; 3000 nM): 1.04; surviving fraction (E21 [6]; 4.1 nM): 1.03; surviving fraction (E21 [6]; 12.3 nM): 0.945; surviving fraction (E21 [6]; 37 nM): 0.996; surviving fraction (E21 [6]; 111.1 nM): 1.1; surviving fraction (E21 [6]; 333.3 nM): 1.04; surviving fraction (E21 [6]; 1000 nM): 0.872; surviving fraction (E21 [6]; 3000 nM): 1; surviving fraction (FT3469 [7]; 4.1 nM): 0.912; surviving fraction (FT3469 [7]; 12.3 nM): 1.15; surviving fraction (FT3469 [7]; 37 nM): 0.999; surviving fraction (FT3469 [7]; 111.1 nM): 0.863; surviving fraction (FT3469 [7]; 333.3 nM): 0.935; surviving fraction (FT3469 [7]; 1000 nM): 0.921; surviving fraction (FT3469 [7]; 3000 nM): 1.1; phenotypic distance (E28 [8]; 4.1 nM): 0.972; phenotypic distance (E28 [8]; 12.3 nM): 1.17; phenotypic distance (E28 [8]; 37 nM): 0.735; phenotypic distance (E28 [8]; 111.1 nM): 1.32; phenotypic distance (E28 [8]; 333.3 nM): 0.871; phenotypic distance (E28 [8]; 1000 nM): 1.28; phenotypic distance (E28 [8]; 3000 nM): 0.95; phenotypic distance (E57 [9]; 4.1 nM): 0.41; phenotypic distance (E57 [9]; 12.3 nM): 0.828; phenotypic distance (E57 [9]; 37 nM): 0.568; phenotypic distance (E57 [9]; 111.1 nM): 0.557; phenotypic distance (E57 [9]; 333.3 nM): 0.555; phenotypic distance (E57 [9]; 1000 nM): 0.56; phenotypic distance (E57 [9]; 3000 nM): 0.478; phenotypic distance (E31 [10]; 4.1 nM): 0.849; phenotypic distance (E31 [10]; 12.3 nM): 1.02; phenotypic distance (E31 [10]; 37 nM): 1.47; phenotypic distance (E31 [10]; 111.1 nM): 1.03; phenotypic distance (E31 [10]; 333.3 nM): 0.83; phenotypic distance (E31 [10]; 1000 nM): 0.791; phenotypic distance (E31 [10]; 3000 nM): 0.951; phenotypic distance (E34 [11]; 4.1 nM): 1.19; phenotypic distance (E34 [11]; 12.3 nM): 0.687; phenotypic distance (E34 [11]; 37 nM): 0.776; phenotypic distance (E34 [11]; 111.1 nM): 1.03; phenotypic distance (E34 [11]; 333.3 nM): 0.862; phenotypic distance (E34 [11]; 1000 nM): 1.13; phenotypic distance (E34 [11]; 3000 nM): 0.579; phenotypic distance (E13 [12]; 4.1 nM): 0.817; phenotypic distance (E13 [12]; 12.3 nM): 0.661; phenotypic distance (E13 [12]; 37 nM): 0.401; phenotypic distance (E13 [12]; 111.1 nM): 0.597; phenotypic distance (E13 [12]; 333.3 nM): 0.747; phenotypic distance (E13 [12]; 1000 nM): 0.669; phenotypic distance (E13 [12]; 3000 nM): 0.437; phenotypic distance (E21 [13]; 4.1 nM): 0.487; phenotypic distance (E21 [13]; 12.3 nM): 0.521; phenotypic distance (E21 [13]; 37 nM): 0.591; phenotypic distance (E21 [13]; 111.1 nM): 1.08; phenotypic distance (E21 [13]; 333.3 nM): 0.913; phenotypic distance (E21 [13]; 1000 nM): 0.784; phenotypic distance (E21 [13]; 3000 nM): 0.381; phenotypic distance (FT3469 [14]; 4.1 nM): 0.505; phenotypic distance (FT3469 [14]; 12.3 nM): 1.05; phenotypic distance (FT3469 [14]; 37 nM): 0.628; phenotypic distance (FT3469 [14]; 111.1 nM): 1.13; phenotypic distance (FT3469 [14]; 333.3 nM): 0.522; phenotypic distance (FT3469 [14]; 1000 nM): 1.07; phenotypic distance (FT3469 [14]; 3000 nM): 0.83

Which results are given for `O=C(Oc1cccc2cccnc12)c1ccccc1` [Benzoxiquine]?
surviving fraction (E28 [1]; 4.1 nM): 0.997; surviving fraction (E28 [1]; 12.3 nM): 1.14; surviving fraction (E28 [1]; 37 nM): 1.07; surviving fraction (E28 [1]; 111.1 nM): 1.1; surviving fraction (E28 [1]; 333.3 nM): 1.07; surviving fraction (E28 [1]; 1000 nM): 1.27; surviving fraction (E28 [1]; 3000 nM): 0.00427; surviving fraction (E57 [2]; 4.1 nM): 0.965; surviving fraction (E57 [2]; 12.3 nM): 0.992; surviving fraction (E57 [2]; 37 nM): 0.997; surviving fraction (E57 [2]; 111.1 nM): 1.01; surviving fraction (E57 [2]; 333.3 nM): 0.999; surviving fraction (E57 [2]; 1000 nM): 1.02; surviving fraction (E57 [2]; 3000 nM): 0.00305; surviving fraction (E31 [3]; 4.1 nM): 0.993; surviving fraction (E31 [3]; 12.3 nM): 0.838; surviving fraction (E31 [3]; 37 nM): 0.975; surviving fraction (E31 [3]; 111.1 nM): 1.19; surviving fraction (E31 [3]; 333.3 nM): 1.04; surviving fraction (E31 [3]; 1000 nM): 1.04; surviving fraction (E31 [3]; 3000 nM): 0; surviving fraction (E34 [4]; 4.1 nM): 0.906; surviving fraction (E34 [4]; 12.3 nM): 0.899; surviving fraction (E34 [4]; 37 nM): 0.981; surviving fraction (E34 [4]; 111.1 nM): 1.1; surviving fraction (E34 [4]; 333.3 nM): 1.07; surviving fraction (E34 [4]; 1000 nM): 0.844; surviving fraction (E34 [4]; 3000 nM): 0.00175; surviving fraction (E13 [5]; 4.1 nM): 0.876; surviving fraction (E13 [5]; 12.3 nM): 0.962; surviving fraction (E13 [5]; 37 nM): 1.05; surviving fraction (E13 [5]; 111.1 nM): 0.997; surviving fraction (E13 [5]; 333.3 nM): 1.09; surviving fraction (E13 [5]; 1000 nM): 0.85; surviving fraction (E13 [5]; 3000 nM): 0.000925; surviving fraction (E21 [6]; 4.1 nM): 0.962; surviving fraction (E21 [6]; 12.3 nM): 1.11; surviving fraction (E21 [6]; 37 nM): 1.13; surviving fraction (E21 [6]; 111.1 nM): 1.1; surviving fraction (E21 [6]; 333.3 nM): 0.981; surviving fraction (E21 [6]; 1000 nM): 1.04; surviving fraction (E21 [6]; 3000 nM): 0; surviving fraction (FT3469 [7]; 4.1 nM): 1.05; surviving fraction (FT3469 [7]; 12.3 nM): 0.924; surviving fraction (FT3469 [7]; 37 nM): 1.06; surviving fraction (FT3469 [7]; 111.1 nM): 1.03; surviving fraction (FT3469 [7]; 333.3 nM): 1.21; surviving fraction (FT3469 [7]; 1000 nM): 1; surviving fraction (FT3469 [7]; 3000 nM): 0.00288; phenotypic distance (E28 [8]; 4.1 nM): 1.39; phenotypic distance (E28 [8]; 12.3 nM): 0.791; phenotypic distance (E28 [8]; 37 nM): 1.24; phenotypic distance (E28 [8]; 111.1 nM): 0.938; phenotypic distance (E28 [8]; 333.3 nM): 0.845; phenotypic distance (E28 [8]; 1000 nM): 1.59; phenotypic distance (E28 [8]; 3000 nM): 17.6; phenotypic distance (E57 [9]; 4.1 nM): 0.568; phenotypic distance (E57 [9]; 12.3 nM): 0.458; phenotypic distance (E57 [9]; 37 nM): 0.358; phenotypic distance (E57 [9]; 111.1 nM): 0.673; phenotypic distance (E57 [9]; 333.3 nM): 0.716; phenotypic distance (E57 [9]; 1000 nM): 0.72; phenotypic distance (E57 [9]; 3000 nM): 13.7; phenotypic distance (E31 [10]; 4.1 nM): 1.12; phenotypic distance (E31 [10]; 12.3 nM): 1.22; phenotypic distance (E31 [10]; 37 nM): 0.854; phenotypic distance (E31 [10]; 111.1 nM): 1.7; phenotypic distance (E31 [10]; 333.3 nM): 1.32; phenotypic distance (E31 [10]; 1000 nM): 1.22; phenotypic distance (E31 [10]; 3000 nM): 15.5; phenotypic distance (E34 [11]; 4.1 nM): 0.673; phenotypic distance (E34 [11]; 12.3 nM): 0.614; phenotypic distance (E34 [11]; 37 nM): 0.56; phenotypic distance (E34 [11]; 111.1 nM): 0.455; phenotypic distance (E34 [11]; 333.3 nM): 0.815; phenotypic distance (E34 [11]; 1000 nM): 1.42; phenotypic distance (E34 [11]; 3000 nM): 19.8; phenotypic distance (E13 [12]; 4.1 nM): 1.08; phenotypic distance (E13 [12]; 12.3 nM): 1.14; phenotypic distance (E13 [12]; 37 nM): 0.78; phenotypic distance (E13 [12]; 111.1 nM): 0.506; phenotypic distance (E13 [12]; 333.3 nM): 0.775; phenotypic distance (E13 [12]; 1000 nM): 0.864; phenotypic distance (E13 [12]; 3000 nM): 19.1; phenotypic distance (E21 [13]; 4.1 nM): 1.17; phenotypic distance (E21 [13]; 12.3 nM): 0.851; phenotypic distance (E21 [13]; 37 nM): 1.34; phenotypic distance (E21 [13]; 111.1 nM): 0.833; phenotypic distance (E21 [13]; 333.3 nM): 1.24; phenotypic distance (E21 [13]; 1000 nM): 0.732; phenotypic distance (E21 [13]; 3000 nM): 23.9; phenotypic distance (FT3469 [14]; 4.1 nM): 0.579; phenotypic distance (FT3469 [14]; 12.3 nM): 0.893; phenotypic distance (FT3469 [14]; 37 nM): 0.62; phenotypic distance (FT3469 [14]; 111.1 nM): 0.641; phenotypic distance (FT3469 [14]; 333.3 nM): 1.07; phenotypic distance (FT3469 [14]; 1000 nM): 0.688; phenotypic distance (FT3469 [14]; 3000 nM): 14.3
